Assay results as given in US20230085307A1, “PYRIDAZINONE COMPOUND AND HERBICIDE” (NISSAN CHEMICAL CORPORATION, priority 2019, published 2023).

How the values were obtained:
green foxtail [1] = experiment: Test Example 5: herbicidal effect by foliage application, plastic box (Table 20, symbol G); format: in vivo, green foxtail (Setaria viridis); details: foliage application, 320 g/ha
Procedure, shortened: (§1)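 Sow seeds spot-wise in sterilized diluvial soil; cover with ~1.5 cm soil. Grow 14 days in greenhouse, 25° C. to 30° C. Spray foliage with emulsion diluted to predetermined amount. Rate effect after 3 weeks.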

oval-leafed pondweed = experiment: Test Example 2: herbicidal activity, application during weed generation under submerged conditions (Table 17, symbol C); format: in vivo, oval-leafed pondweed (Monochoria vaginalis); details: AAH 320 g/ha; application during weed generation, submerged conditions
Procedure, shortened: (§2)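 In this pot test, flooded alluvial soil (water depth 4 cm) holds all three species sown as a mixture. Once seedlings have one to two leaves, the compound's emulsion, thinned with water to the intended dose, is poured on the water; grading follows after three weeks on the earlier criteria.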

windgrass [2] = experiment: Test Example 4: herbicidal effect by soil treatment (Table 19, symbol L); format: in vivo, windgrass (Apera spica-venti)
Procedure, shortened: (§3)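 Applied as a water-diluted emulsion, the compound was sprayed onto soil covering newly sown seeds. Evaluation came three weeks after application, in a greenhouse held at 25° C. to 30° C.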

blackgrass [3] = experiment: Test Example 4: herbicidal effect by soil treatment (Table 19, symbol J); format: in vivo, blackgrass (Alopecurus myosuroides)
Procedure, shortened: as §3

late watergrass = experiment: Test Example 2: herbicidal activity, application during weed generation under submerged conditions (Table 17, symbol A); format: in vivo, late watergrass (Echinochloa oryzicola); details: AAH 320 g/ha; application during weed generation, submerged conditions
Procedure, shortened: as §2

chickweed [4] = experiment: Test Example 5: herbicidal effect by foliage application, plastic box (Table 20, symbol P); format: in vivo, common chickweed (Stellaria media); details: foliage application, 320 g/ha
Procedure, shortened: as §1

persian speedwell [5] = experiment: Test Example 5: herbicidal effect by foliage application, plastic box (Table 20, symbol R); format: in vivo, Persian speedwell (Veronica persica); details: foliage application, 320 g/ha
Procedure, shortened: as §1

Italian ryegrass [6] = experiment: Test Example 5: herbicidal effect by foliage application, plastic box (Table 20, symbol K); format: in vivo, Italian ryegrass (Lolium multiflorum); details: foliage application, 320 g/ha
Procedure, shortened: as §1

wild oat [7] = experiment: Test Example 4: herbicidal effect by soil treatment (Table 19, symbol I); format: in vivo, wild oat (Avena fatua)
Procedure, shortened: as §3

barnyard grass [8] = experiment: Test Example 3: herbicidal effect by foliage application, Wagner pot (Table 18, symbol H); format: in vivo, barnyard grass (Echinochloa crus-galli); details: 320 g/ha
Procedure, shortened: (§4)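 Plants were sown in alluvial soil held under 0.1–0.5 cm standing water and grown 14 days in a greenhouse at 25–30 °C. An emulsifiable formulation, water-diluted to the set dose, was then sprayed onto the foliage, and effects were scored three weeks later using previously defined criteria.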

velvetleaf [9] = experiment: Test Example 5: herbicidal effect by foliage application, plastic box (Table 20, symbol M); format: in vivo, velvetleaf (Abutilon theophrasti); details: foliage application, 320 g/ha
Procedure, shortened: as §1

persian speedwell [10] = experiment: Test Example 4: herbicidal effect by soil treatment (Table 19, symbol R); format: in vivo, Persian speedwell (Veronica persica)
Procedure, shortened: as §3

blackgrass [11] = experiment: Test Example 5: herbicidal effect by foliage application, plastic box (Table 20, symbol J); format: in vivo, blackgrass (Alopecurus myosuroides); details: foliage application, 320 g/ha
Procedure, shortened: as §1

rice flat sedge = experiment: Test Example 3: herbicidal effect by foliage application, Wagner pot (Table 18, symbol E); format: in vivo, rice flat sedge (Cyperus iria); details: 320 g/ha
Procedure, shortened: as §4

chickweed [12] = experiment: Test Example 4: herbicidal effect by soil treatment (Table 19, symbol P); format: in vivo, common chickweed (Stellaria media)
Procedure, shortened: as §3

wild oat [13] = experiment: Test Example 5: herbicidal effect by foliage application, plastic box (Table 20, symbol I); format: in vivo, wild oat (Avena fatua); details: foliage application, 320 g/ha
Procedure, shortened: as §1

redroot pigweed [14] = experiment: Test Example 5: herbicidal effect by foliage application, plastic box (Table 20, symbol N); format: in vivo, redroot pigweed (Amaranthus retroflexus); details: foliage application, 320 g/ha
Procedure, shortened: as §1

Chinese sprangletop = experiment: Test Example 3: herbicidal effect by foliage application, Wagner pot (Table 18, symbol D); format: in vivo, chinese sprangletop (Leptochloa chinensis); details: 320 g/ha
Procedure, shortened: as §4

Japanese bulrush = experiment: Test Example 2: herbicidal activity, application during weed generation under submerged conditions (Table 17, symbol B); format: in vivo, Japanese bulrush (Schoenoplectus juncoides); details: AAH 320 g/ha; application during weed generation, submerged conditions
Procedure, shortened: as §2

lambsquarters [15] = experiment: Test Example 5: herbicidal effect by foliage application, plastic box (Table 20, symbol O); format: in vivo, lambsquarters (Chenopodium album); details: foliage application, 320 g/ha
Procedure, shortened: as §1

barnyard grass [16] = experiment: Test Example 5: herbicidal effect by foliage application, plastic box (Table 20, symbol H); format: in vivo, barnyard grass (Echinochloa crus-galli); details: foliage application, 320 g/ha
Procedure, shortened: as §1

Italian ryegrass [17] = experiment: Test Example 4: herbicidal effect by soil treatment (Table 19, symbol K); format: in vivo, Italian ryegrass (Lolium multiflorum)
Procedure, shortened: as §3

windgrass [18] = experiment: Test Example 5: herbicidal effect by foliage application, plastic box (Table 20, symbol L); format: in vivo, windgrass (Apera spica-venti); details: foliage application, 320 g/ha
Procedure, shortened: as §1

southern crabgrass [19] = experiment: Test Example 5: herbicidal effect by foliage application, plastic box (Table 20, symbol F); format: in vivo, southern crabgrass (Digitaria ciliaris); details: foliage application, 320 g/ha
Procedure, shortened: as §1

barnyard grass [20] = experiment: Test Example 4: herbicidal effect by soil treatment (Table 19, symbol H); format: in vivo, barnyard grass (Echinochloa crus-galli); details: 320 g/ha
Procedure, shortened: as §3

green foxtail [21] = experiment: Test Example 4: herbicidal effect by soil treatment (Table 19, symbol G); format: in vivo, green foxtail (Setaria viridis); details: 320 g/ha
Procedure, shortened: as §3

velvetleaf [22] = experiment: Test Example 4: herbicidal effect by soil treatment (Table 19, symbol M); format: in vivo, velvetleaf (Abutilon theophrasti); details: 320 g/ha
Procedure, shortened: as §3

lambsquarters [23] = experiment: Test Example 4: herbicidal effect by soil treatment (Table 19, symbol O); format: in vivo, lambsquarters (Chenopodium album); details: 320 g/ha
Procedure, shortened: as §3

southern crabgrass [24] = experiment: Test Example 4: herbicidal effect by soil treatment (Table 19, symbol F); format: in vivo, southern crabgrass (Digitaria ciliaris); details: 320 g/ha
Procedure, shortened: as §3

redroot pigweed [25] = experiment: Test Example 4: herbicidal effect by soil treatment (Table 19, symbol N); format: in vivo, redroot pigweed (Amaranthus retroflexus); details: 320 g/ha
Procedure, shortened: as §3

[26] = amount of applied herbicide 320 g/ha
[27] = evaluated three weeks after application

Structure (SMILES): CCCC(=O)Oc1c(C)nn(C)c(=O)c1-c1c(-c2ccc(OC(F)(F)F)cc2)sc2ccccc12 [1-032]
- herbicidal effect grade, G: green foxtail (green foxtail [1]; three weeks after application): 4 (Herbicidal rate of 70% or more and less than 90%)
- herbicidal effect rating, C: oval-leafed pondweed (oval-leafed pondweed): 3 (Herbicidal rate of 40% or more and less than 70%)
- herbicidal effect rating, L: windgrass (windgrass [2]; [26]): 0 (Herbicidal rate of 5% or less (almost no effect))
- herbicidal effect rating, J: blackgrass (blackgrass [3]; [26]): 0 (Herbicidal rate of 5% or less (almost no effect))
- herbicidal effect rating, A: late watergrass (late watergrass): 0 (Herbicidal rate of 5% or less (almost no effect))
- herbicidal effect grade, P: chickweed (chickweed [4]; three weeks after application): 5 (Herbicidal rate of 90% or more (almost completely withered))
- herbicidal effect grade, R: persian speedwell (persian speedwell [5]; three weeks after application): 5 (Herbicidal rate of 90% or more (almost completely withered))
- herbicidal effect grade, K: Italian ryegrass (Italian ryegrass [6]; three weeks after application): 3 (Herbicidal rate of 40% or more and less than 70%)
- herbicidal effect rating, I: wild oat (wild oat [7]; [26]): 0 (Herbicidal rate of 5% or less (almost no effect))
- herbicidal effect on H (barnyard grass), rating 0-5 (barnyard grass [8]): 4 (Herbicidal rate of 70% or more and less than 90%)
- herbicidal effect grade, M: velvetleaf (velvetleaf [9]; three weeks after application): 5 (Herbicidal rate of 90% or more (almost completely withered))
- herbicidal effect rating, R: persian speedwell (persian speedwell [10]; [26]): 5 (Herbicidal rate of 90% or more (almost completely withered))
- herbicidal effect grade, J: blackgrass (blackgrass [11]; three weeks after application): 2 (Herbicidal rate of 20% or more and less than 40%)
- herbicidal effect on E (rice flat sedge), rating 0-5 (rice flat sedge): 5 (Herbicidal rate of 90% or more (almost completely withered))
- herbicidal effect rating, P: chickweed (chickweed [12]; [26]): 3 (Herbicidal rate of 40% or more and less than 70%)
- herbicidal effect grade, I: wild oat (wild oat [13]; three weeks after application): 0 (Herbicidal rate of 5% or less (almost no effect))
- herbicidal effect grade, N: redroot pigweed (redroot pigweed [14]; three weeks after application): 4 (Herbicidal rate of 70% or more and less than 90%)
- herbicidal effect on D (Chinese sprangletop), rating 0-5 (Chinese sprangletop): 0 (Herbicidal rate of 5% or less (almost no effect))
- herbicidal effect rating, B: Japanese bulrush (Japanese bulrush): 1 (Herbicidal rate of 5% or more and less than 20%)
- herbicidal effect grade, O: lambsquarters (lambsquarters [15]; three weeks after application): 5 (Herbicidal rate of 90% or more (almost completely withered))
- herbicidal effect grade, H: barnyard grass (barnyard grass [16]; three weeks after application): 3 (Herbicidal rate of 40% or more and less than 70%)
- herbicidal effect rating, K: Italian ryegrass (Italian ryegrass [17]; [26]): 4 (Herbicidal rate of 70% or more and less than 90%)
- herbicidal effect grade, L: windgrass (windgrass [18]; three weeks after application): 0 (Herbicidal rate of 5% or less (almost no effect))
- herbicidal effect grade, F: southern crabgrass (southern crabgrass [19]; three weeks after application): 0 (Herbicidal rate of 5% or less (almost no effect))

Structure (SMILES): COCCOCOc1c(C)nn(C)c(=O)c1-c1c(-c2ccc(OCC#N)cc2)sc2ccc(F)cc12 [2-067]
- herbicidal effect on G: green foxtail (green foxtail [1]; [27]): 1 (Herbicidal rate of 5% or more and less than 20%)
- herbicidal effect rating, C: oval-leafed pondweed (oval-leafed pondweed): 0 (Herbicidal rate of 5% or less (almost no effect))
- herbicidal effect rating, L: windgrass (windgrass [2]; 320 g/ha): 0 (Herbicidal rate of 5% or less (almost no effect))
- herbicidal effect rating, H: barnyard grass (barnyard grass [20]): 0 (Herbicidal rate of 5% or less (almost no effect))
- herbicidal effect rating, J: blackgrass (blackgrass [3]; 320 g/ha): 0 (Herbicidal rate of 5% or less (almost no effect))
- herbicidal effect rating, A: late watergrass (late watergrass): 2 (Herbicidal rate of 20% or more and less than 40%)
- herbicidal effect on P: chickweed (chickweed [4]; [27]): 4 (Herbicidal rate of 70% or more and less than 90%)
- herbicidal effect on R: persian speedwell (persian speedwell [5]; [27]): 5 (Herbicidal rate of 90% or more (almost completely withered))
- herbicidal effect rating, G: green foxtail (green foxtail [21]): 0 (Herbicidal rate of 5% or less (almost no effect))
- herbicidal effect rating, M: velvetleaf (velvetleaf [22]): 0 (Herbicidal rate of 5% or less (almost no effect))
- herbicidal effect rating, O: lambsquarters (lambsquarters [23]): 3 (Herbicidal rate of 40% or more and less than 70%)
- herbicidal effect on K: Italian ryegrass (Italian ryegrass [6]; [27]): 0 (Herbicidal rate of 5% or less (almost no effect))
- herbicidal effect rating, I: wild oat (wild oat [7]; 320 g/ha): 0 (Herbicidal rate of 5% or less (almost no effect))
- herbicidal effect rating, F: southern crabgrass (southern crabgrass [24]): 0 (Herbicidal rate of 5% or less (almost no effect))
- herbicidal effect on H (barnyard grass), rating 0-5 (barnyard grass [8]): 4 (Herbicidal rate of 70% or more and less than 90%)
- herbicidal effect on M: velvetleaf (velvetleaf [9]; [27]): 2 (Herbicidal rate of 20% or more and less than 40%)
- herbicidal effect rating, R: persian speedwell (persian speedwell [10]; 320 g/ha): 3 (Herbicidal rate of 40% or more and less than 70%)
- herbicidal effect on J: blackgrass (blackgrass [11]; [27]): 0 (Herbicidal rate of 5% or less (almost no effect))
- herbicidal effect on E (rice flat sedge), rating 0-5 (rice flat sedge): 3 (Herbicidal rate of 40% or more and less than 70%)
- herbicidal effect rating, P: chickweed (chickweed [12]; 320 g/ha): 0 (Herbicidal rate of 5% or less (almost no effect))
- herbicidal effect on I: wild oat (wild oat [13]; [27]): 0 (Herbicidal rate of 5% or less (almost no effect))
- herbicidal effect on N: redroot pigweed (redroot pigweed [14]; [27]): 5 (Herbicidal rate of 90% or more (almost completely withered))
- herbicidal effect on D (Chinese sprangletop), rating 0-5 (Chinese sprangletop): 5 (Herbicidal rate of 90% or more (almost completely withered))
- herbicidal effect rating, B: Japanese bulrush (Japanese bulrush): 0 (Herbicidal rate of 5% or less (almost no effect))
- herbicidal effect on O: lambsquarters (lambsquarters [15]; [27]): 4 (Herbicidal rate of 70% or more and less than 90%)
- herbicidal effect on H: barnyard grass (barnyard grass [16]; [27]): 1 (Herbicidal rate of 5% or more and less than 20%)
- herbicidal effect rating, K: Italian ryegrass (Italian ryegrass [17]; 320 g/ha): 0 (Herbicidal rate of 5% or less (almost no effect))
- herbicidal effect on L: windgrass (windgrass [18]; [27]): 0 (Herbicidal rate of 5% or less (almost no effect))
- herbicidal effect rating, N: redroot pigweed (redroot pigweed [25]): 3 (Herbicidal rate of 40% or more and less than 70%)
- herbicidal effect on F: southern crabgrass (southern crabgrass [19]; [27]): 3 (Herbicidal rate of 40% or more and less than 70%)
